Experimental data taken from patent publication US11286414B2, “Sodium nitroprusside and nitrate metabolic inhibition of sulfate-reducing microbes to control sulfide production” (UTI Limited Partnership, priority 2017, dated 2022).

What was measured:
[1] = test system: 4PW SRB consortia; experiment: Comparison of SNP with other biocides on souring; assay type: cell-based, SRB consortia enriched from 4PW; conditions: 10 ppm added at start of growth, one month
[2] = test system: SRB consortia; experiment: Souring control in sand-packed bioreactors containing heavy oil; assay type: cell-based, SRB consortia from MHGC produced water (18PW)

Compound	metabolic activity and growth of SRB (sulfide, sulfate, lactate concentrations) [1]	effect on sulfide concentration in the effluent ([2]; injection of 2 PV CSBK-S with 85 ppm (1 mM) or 170 ppm (2 mM) nitrate)	sulfate reduction ([2]; injection of 2 PV of 340 ppm (4 mM) nitrate)	concentration that inhibited sulfate reduction / controlled souring when used singly ([2]; oil as electron donor) [ppm]
O=CCCCC=O [Glut, glutaraldehyde]	not effective at this low dosage	–	–	–
O=[N+]([O-])[O-].[Na+] [nitrate, sodium nitrate]	–	did not affect the sulfide concentration in the effluent	inhibition of sulfate reduction was observed	340
benzalkonium chloride [BAC]	not effective at this low dosage	–	–	–
cocodiamine	not effective at this low dosage	–	–	–
tetrakishydroxymethyl phosphonium sulfate [THPS]	not effective at this low dosage	–	–	–
